Results taken from patent US20080312150A1 (priority 1999, published 2008).

Experiments:
human skin = experiment: Fluorescence micrograph of ALA-induced PpIX in human skin; conditions: human skin incubated in ALA for 4 hours
LNCaP cells [1] = experiment: PDT using ALA-induced PpIX, cell survival (MTT conversion assay); type: cell-based, human; conditions: for light dose to reduce cell survival by 50% (MTT): 514 nm light; for survival after PDT: versus no pretreatment
Protocol: ALA-induced PpIX for PDT of LNCaP cells with (circles) or without (triangles) pretreatment for 72 hours with 10^−7 M R1881. The cells were incubated with ALA concentrations from 0.1 to 1.0 mM for four hours prior to exposure to 10 J/cm^2 of 514 nm light.
PDT using ALA-induced PpIX in LNCaP cells with (circles) or without (triangles) pretreatment for 72 hours with 10^−7 M R1881. The cells were incubated with 0.3 mM ALA for four hours prior to exposure to 3-20 J/cm^2 of 514 nm light.
(§1) LNCaP (human prostate cancer) cells were treated with methotrexate (1 μg/ml) for 72 hours. The cells were then incubated with 0.3 mM ALA for 4 hours. After ALA treatment, cells were either used for quantification of PpIX or exposed to 514 nm light. […] This enhancement of PDT by chemotherapy can also be seen when long-term survival was assessed by colony formation assay (FIG. 6B). Here, the 50% levels are reached at 25 J/cm2, compared to 2 J/cm2. […] Chemotherapeutic effect was also confirmed using cyclophosphamide.

[2] = test system: LNCaP (human prostate cancer) cells; experiment: PDT long-term survival by colony formation assay; type: cell-based; conditions: 514 nm light
Protocol: as §1

[3] = test system: LNCaP human prostate cancer cells; experiment: ALA-induced PpIX formation by LNCaP cells; type: cell-based
Protocol: ALA-induced PpIX formation by LNCaP human prostate cancer cells. The cells were incubated for four hours with 0.3 mM ALA after 72 hours of pretreatment with the synthetic androgen R1881 at concentrations between 10^−10 to 10^−6.
as §1

LNCaP cells [4] = experiment: Confocal laser scanning microscopy of PPIX fluorescence in living cells; type: cell-based, human; conditions: 10^−7 M R1881 72 hours, then 0.3 mM ALA 4 hours; excitation 488 nm
Protocol: LNCaP cells were pretreated with 10^−7 M R1881 for 72 hours or with vehicle, and then incubated with 0.3 mM ALA. At 4 hours the living cells were imaged using the confocal laser scanning microscope. Excitation was at 488 nm and both green (auto fluorescence) and red (PPIX) fluorescence was recorded and combined.

LNCaP tumors = experiment: PpIX formation in LNCaP tumors in vivo (confocal imaging of frozen sections); parameters: species or system SCID mice; conditions: 400 pg/kg R1881, after 4 days 250 mg/kg ALA i.p., tumors removed at 4 hours; 633 nm excitation
Protocol: SCID mice bearing LNCaP tumors were pretreated with a high dose of 400 pg/kg R1881 and after 4 days received 250 mg/kg ALA i.p. At 4 hours, the mice were sacrificed and the tumors removed. Frozen sections of the tumors were imaged on the confocal laser scanning microscope. Using 633 nm excitation, the sections of tumors from an untreated mouse (FIG. 5A) and an R1881-pretreated mouse (FIG. 5B) were imaged at the same instrument parameters.

[5] = cell line and regimen not stated
Protocol: as §1

[6] = PDT alone: 0.3 mM ALA 4 hours, no methotrexate
[7] = combined regimen: methotrexate 1 μg/ml 72 hours, 0.3 mM ALA 4 hours

Compound: NCC(=O)CCC(=O)O [ALA]
- ALA-induced PpIX fluorescence signal across epidermal layers (human skin): increase of fluorescence signal from bottom to top epidermal layers
- light dose to reduce cell survival by 50% (MTT) (LNCaP cells [1]; [6]): 20 J/cm2
- light dose for 50% level (colony formation) [2, 6]: 25 J/cm2

Compound: C[C@]1(O)CC[C@H]2[C@@H]3CCC4=CC(=O)CCC4=C3C=C[C@@]21C [R1881]
- ALA-induced PpIX formation (% of cells without androgen treatment) ([3]; 72 hours pretreatment with R1881 10^−10 to 10^−6, then 0.3 mM ALA four hours): significant increase
- survival after PDT (LNCaP cells [1]; 72 hours 10^−7 M R1881, 0.3 mM ALA four hours, 3-20 J/cm^2 of 514 nm light): Reduced survival
- survival after PDT (LNCaP cells [1]; 72 hours 10^−7 M R1881, ALA 0.1 to 1.0 mM four hours, 10 J/cm^2 of 514 nm light): Reduced survival
- PPIX fluorescence in cells (LNCaP cells [4]): strong PPIX fluorescence in almost all cells
- PpIX formation in tumors (LNCaP tumors): increased PpIX formation

Compound: O=P1(N(CCCl)CCCl)NCCCO1 (stereo not drawn) [cyclophosphamide]
- chemotherapeutic effect (enhancement of PDT by pretreatment) [5]: confirmed

Compound: CN(Cc1cnc2nc(N)nc(N)c2n1)c1ccc(C(=O)N[C@@H](CCC(=O)O)C(=O)O)cc1 [methotrexate]
- increase in PpIX levels ([3]; methotrexate 1 μg/ml 72 hours, then 0.3 mM ALA 4 hours, mean+/−standard deviation): 4.1±1.1 fold
- light dose to reduce cell survival by 50% (MTT) (LNCaP cells [1]; [7]): 2 J/cm2
- light dose for 50% level (colony formation) [2, 7]: 2 J/cm2
